Test results published in ChEMBL document CHEMBL1136022, “Development of tripeptidyl farnesyltransferase inhibitors” (Bioorg Med Chem Lett, 2002).
Where a SMILES comes first, the peptide text is derived from it. The star is where a group is joined. Isovaleryl = CC(C)CC(=O)*; Isobutyryl = CC(C)C(=O)*; Octanoyl = CCCCCCCC(=O)*; Hexanoyl = CCCCCC(=O)*; PhAc = O=C(Cc1ccccc1)*; Bz = O=C(c1ccccc1)*

Legend:
[1] = molecular target: Protein farnesyltransferase (Bos taurus) (UniProt P29702+P49355); test: In vitro inhibition of bovine Farnesyltransferase at a 1 ug/mL.; type: protein-complex assay
[2] = molecular target: Protein farnesyltransferase (Bos taurus, UniProt P29702+P49355); test: In vitro inhibition of bovine Farnesyltransferase.; type: protein-complex assay

SMILES	inhibition [1] [%]	IC50 [2] [µM]
COC(=O)[C@H](Cc1ccc(OC(=O)/C=C/c2ccccc2)cc1)NC(=O)[C@@H](NC(=O)[C@@H](N)CS)C(C)C	12.6	43
COC(=O)[C@H](COC(=O)C=C(C)C)NC(=O)[C@@H](NC(=O)[C@@H](N)CS)C(C)C	38.6	
COC(=O)[C@H](Cc1ccc(OC(=O)c2ccccc2)cc1)NC(=O)[C@@H](NC(=O)[C@@H](N)CS)C(C)C (H-Cys-Val-Tyr(Bz)-OMe)	23.4	20
COC(=O)[C@H](Cc1cccc(OC(=O)c2ccccc2)c1)NC(=O)[C@@H](NC(=O)[C@@H](N)CS)C(C)C	69.3	
COC(=O)[C@H](Cc1cccc(OC(=O)/C=C/c2ccccc2)c1)NC(=O)[C@@H](NC(=O)[C@@H](N)CS)C(C)C	17	17
CCCCCCCC(=O)Oc1ccc(C[C@H](NC(=O)[C@@H](NC(=O)[C@@H](N)CS)C(C)C)C(=O)OC)cc1 (H-Cys-Val-Tyr(Octanoyl)-OMe)	17	22
COC(=O)[C@H](Cc1ccc(OC(=O)Cc2ccccc2)cc1)NC(=O)[C@@H](NC(=O)[C@@H](N)CS)C(C)C (H-Cys-Val-Tyr(PhAc)-OMe)	32	
COC(=O)[C@H](CO)NC(=O)[C@@H](NC(=O)[C@@H](N)CS)C(C)C (H-Cys-Val-Ser-OMe)	0	
COC(=O)[C@H](Cc1cccc(OC(C)=O)c1)NC(=O)[C@@H](NC(=O)[C@@H](N)CS)C(C)C	12	
COC(=O)[C@H](Cc1ccc(OC(C)=O)cc1)NC(=O)[C@@H](NC(=O)[C@@H](N)CS)C(C)C (H-Cys-Val-Tyr(Ac)-OMe)	6.3	48
COC(=O)[C@H](COC(=O)/C=C/c1ccccc1)NC(=O)[C@@H](NC(=O)[C@@H](N)CS)C(C)C	16.3	

More lines, in order of falling IC50 [2], values ahead:

inhibition [1] [%]	IC50 [2] [µM]	SMILES
26.7	12	COC(=O)[C@H](Cc1ccc(OC(=O)C(C)C)cc1)NC(=O)[C@@H](NC(=O)[C@@H](N)CS)C(C)C (H-Cys-Val-Tyr(Isobutyryl)-OMe)
30	10	COC(=O)[C@H](Cc1cccc(OC(=O)C(C)C)c1)NC(=O)[C@@H](NC(=O)[C@@H](N)CS)C(C)C
61	8.4	COC(=O)[C@H](Cc1cccc(OC(=O)C=C(C)C)c1)NC(=O)[C@@H](NC(=O)[C@@H](N)CS)C(C)C
10	8.1	COC(=O)[C@H](Cc1ccc(OC(=O)CC(C)CCCC(C)C)cc1)NC(=O)[C@@H](NC(=O)[C@@H](N)CS)C(C)C (some centres undefined)
42	7.5	CCCCCC(=O)Oc1ccc(C[C@H](NC(=O)[C@@H](NC(=O)[C@@H](N)CS)C(C)C)C(=O)OC)cc1 (H-Cys-Val-Tyr(Hexanoyl)-OMe)
	5.8	COC(=O)[C@H](CCSC)NC(=O)[C@H](Cc1ccccc1)NC(=O)[C@@H](NC(=O)[C@@H](N)CS)C(C)C
57	1.8	COC(=O)[C@H](COC(=O)c1ccc(OC)cc1)NC(=O)[C@@H](NC(=O)[C@@H](N)CS)C(C)C
67	0.92	COC(=O)[C@H](COC(=O)c1ccc(C)cc1)NC(=O)[C@@H](NC(=O)[C@@H](N)CS)C(C)C
69.3	0.9	COC(=O)[C@H](COC(=O)c1ccccc1)NC(=O)[C@@H](NC(=O)[C@@H](N)CS)C(C)C (H-Cys-Val-Ser(Bz)-OMe)
74	0.82	COC(=O)[C@H](Cc1ccc(OC(=O)CC(C)C)cc1)NC(=O)[C@@H](NC(=O)[C@@H](N)CS)C(C)C (H-Cys-Val-Tyr(Isovaleryl)-OMe)
75	0.82	COC(=O)[C@H](COC(=O)c1ccc(Cl)cc1)NC(=O)[C@@H](NC(=O)[C@@H](N)CS)C(C)C
79.6	0.5	COC(=O)[C@H](Cc1ccc(OC(=O)C=C(C)C)cc1)NC(=O)[C@@H](NC(=O)[C@@H](N)CS)C(C)C
